According to patent US10681909B2, “Herbicidal triazoles” (FMC Corporation, priority 2014, dated 2020):

Columns and labels:
blackgrass [1] = assay: Test C preemergence; type: in vivo, Alopecurus myosuroides; settings: for Plant response rating (scale of 0 to 100 where 0 is no effect and 100 is complete control): Blackgrass, preemergence; for Blackgrass plant response rating (0 to 100): Preemergence, visual rating after 13 to 15 d
Source text: (§1) Seeds of plant species selected from blackgrass (Alopecurus myosuroides), ryegrass, Italian (Italian ryegrass, Lolium multiflorum), wheat (winter wheat, Triticum aestivum), galium (catchweed bedstraw, Galium aparine), corn (Zea mays), crabgrass, large (large crabgrass, Digitaria sanguinalis), foxtail, giant, (giant foxtail, Setaria faberii), johnsongrass (Sorghum halepense), lambsquarters (Chenopodium album), morningglory (Ipomoea coccinea), nutsedge, yellow (yellow nutsedge, Cyperus esculentus), pigweed (Amaranthus retroflexus), ragweed (common ragweed, Ambrosia elatior), soybean (Glycine max), barnyardgrass (Echinochloa crus-galli), oilseed rape (Brassica napus), waterhemp (common waterhemp, Amaranthus rudis), and velvetleaf (Abutilon theophrasti) were planted into a blend of loam soil and sand and treated preemergence with test chemicals formulated in a non-phytotoxic solvent mixture which included a surfactant. At the same time, plants selected from these crop and weed species and also chickweed (common chickweed, Stellaria media), oat, wild (wild oat, Avena fatua), and kochia (Kochia scoparia), were planted in pots containing Sunshine Redi-Earth® planting medium comprising spaghnum peat moss, vermiculite, starter nutrients and dolomitic limestone and treated with postemergence applications of test chemicals formulated in the same manner. Plants ranged in height from 2 to 18 cm (1- to 4-leaf stage) for postemergence treatments. […] A dash (-) response means no test result.

lambsquarters = assay: Test C preemergence; type: in vivo, Chenopodium album; settings: for Plant response rating (scale of 0 to 100 where 0 is no effect and 100 is complete control): Lambsquarters, preemergence; for Lambsquarters plant response rating (0 to 100): Preemergence, visual rating after 13 to 15 d
Source text: as §1

ryegrass, Italian = assay: Test A postemergence; type: in vivo, Lolium multiflorum; settings: 0 to 100 scale (0 no effect, 100 complete control), approx. 10 d
Source text: (§2) Seeds of plant species selected from barnyardgrass (Echinochloa crus-galli), crabgrass, large (large crabgrass, Digitaria sanguinalis), kochia (Kochia scoparia), ragweed (common ragweed, Ambrosia elatior), foxtail, giant (giant foxtail, Setaria faberii), morningglory (Ipomoea spp.), pigweed (Amaranthus retroflexus), velvetleaf (Abutilon theophrasti), ryegrass, Italian (Italian ryegrass, Lolium multiflorum), wheat (Triticum aestivum), and corn (Zea mays) were planted into a blend of loam soil and sand and treated preemergence with a directed soil spray using test chemicals formulated in a non-phytotoxic solvent mixture which included a surfactant.
(§3) At the same time, plants selected from these crop and weed species and also blackgrass (Alopecurus myosuroides), and galium (catchweed bedstraw, Galium aparine), were planted in pots containing the same blend of loam soil and sand and treated with postemergence applications of test chemicals formulated in the same manner. Plants ranged in height from 2 to 10 cm and were in the one- to two-leaf stage for the postemergence treatment. Treated plants and untreated controls were maintained in a greenhouse for approximately 10 d, after which time all treated plants were compared to untreated controls and visually evaluated for injury. Plant response ratings, summarized in Table A, are based on a 0 to 100 scale where 0 is no effect and 100 is complete control. A dash (-) response means no test result.

blackgrass [2] = assay: Test A postemergence; type: in vivo, Alopecurus myosuroides; settings: 0 to 100 scale (0 no effect, 100 complete control), approx. 10 d
Source text: as §2, §3

Compound	Plant response rating (scale of 0 to 100 where 0 is no effect and 100 is complete control) (blackgrass [1]; 125 g ai/ha)	Plant response rating (scale of 0 to 100 where 0 is no effect and 100 is complete control) (blackgrass [1]; 250 g ai/ha)	Blackgrass plant response rating (0 to 100) (blackgrass [1]; 31 g ai/ha)	Blackgrass plant response rating (0 to 100) (blackgrass [1]; 62 g ai/ha)	Plant response rating (scale of 0 to 100 where 0 is no effect and 100 is complete control) (lambsquarters; 125 g ai/ha)	Plant response rating (scale of 0 to 100 where 0 is no effect and 100 is complete control) (lambsquarters; 250 g ai/ha)	Lambsquarters plant response rating (0 to 100) (lambsquarters; 31 g ai/ha)	Lambsquarters plant response rating (0 to 100) (lambsquarters; 62 g ai/ha)	Plant response rating, Ryegrass, Italian (ryegrass, Italian; 31 g ai/ha)	Plant response rating, Ryegrass, Italian (ryegrass, Italian; 125 g ai/ha)	Plant response rating, Blackgrass (blackgrass [2]; 31 g ai/ha)	Plant response rating, Blackgrass (blackgrass [2]; 125 g ai/ha)	Plant response rating, Ryegrass, Italian (ryegrass, Italian; 500 g ai/ha)	Plant response rating, Blackgrass (blackgrass [2]; 500 g ai/ha)
COc1nc(-c2ccc(F)cc2)nn1Cc1ccnc(C(F)(F)F)c1 [Compound 9, 4-[[3-(4-fluorophenyl)-5-methoxy-1H-1,2,4-triazol-1-yl]methyl]-2-(trifluoromethyl)pyridine]	90	90	5	85	98	98	70	85						
CCOc1nc(-c2ccc(Cl)cc2)nn1Cc1ccnc(C(F)(F)F)c1 [Compound 26]									20	50	30	50		
CCCOc1nc(-c2ccccc2)nn1Cc1ccnc(C(F)(F)F)c1 [Compound 33]										10		30	40	50
COc1nc(-c2ccc(C(F)(F)F)cc2)nn1Cc1ccnc(C(F)(F)F)c1 [Compound 25]									10	30	10	30		
CCCc1nc(-c2ccc(F)cc2)nn1Cc1ccnc(C(F)(F)F)c1 [Compound 6, 4-[[3-(4-fluorophenyl)-5-propyl-1H-1,2,4-triazol-1-yl]methyl]-2-(trifluoromethyl)pyridine]	95	95	70	90	98	98	98	98						
COc1nc(-c2ccccc2)nn1Cc1ccnc(C(F)(F)F)c1 [Compound 32]	10	90	0	0	80	90	60	60		0		20	50	50
